# Reference: US20260083122A1, “METHOD AND AGENT FOR INACTIVATING BACTERIA OR VIRUSES, AND ANTIVIRAL BASE MATERIAL USING SAME” (NISSAN MOTOR CO., LTD., priority 2022, published 2026)
# Biological target: S-RBD-His (Omicron) (SARS-CoV-2 B.1.1.529 (Omicron) Spike RBD Protein) (Severe acute respiratory syndrome coronavirus 2, UniProt P0DTC2, E484A/G339D/G446S/G496S/K417N/N440K/N501Y/Q493R/Q498R/S371L/S373P/S375F/S477N/T478K/Y505H)
compound,measurement,value
O=[N+]([O-])[O-].O=[N+]1C2CC3CC(C2)CC1C3 [AZADO-Oxo],shift of fluorescence peak (binding amount between spike protein and ACE2),a certain inactivation effect was obtained
